Here are results for 2 compounds from patent US20110262442A1, “COMPOSITIONS FOR TREATING CNS DISORDERS” (Adenios, Inc., priority 2009, published 2011).

Each structure is given as a SMILES string.

For test [1], the system named is ICAM-1 on the choroid plexus. In words: Immunohistochemistry of ICAM-1 expression at the choroid plexus after EAE induction. It counts as in vivo. As to conditions: wild type mice, day 15 post-EAE induction; 2 mg/kg daily; vs DMSO. An excerpt:
(§1) Cd73^−/− mice have been previously described (Thompson et al., “Crucial Role for Ecto-5′-Nucleotidase (CD73) in Vascular Leakage During Hypoxia,” J. Exp. Med. 200:1395-1405 (2004), which is hereby incorporated by reference in its entirety) and have been backcrossed to C57BL/6 for 14 generations. Cd73 mice have no overt susceptibility to infection and appear normal based on the size and cellular composition of their lymphoid organs and their T and B cell responses in in vivo and in vitro assays (Thompson et al., “Crucial Role for Ecto-5′-Nucleotidase (CD73) in Vascular Leakage During Hypoxia,” J. Exp. Med. 200:1395-1405 (2004), which is hereby incorporated by reference in its entirety). C57BL/6 and tcrα^−/− mice on the C57BL/6 background were purchased from The Jackson Laboratories. Mice were bred and housed under specific pathogen-free conditions at Cornell University or the University of Turku. For adenosine receptor blockade experiments, mice were given drinking water supplemented with 0.6 g/L of caffeine (Sigma) or 2 mg/kg SCH58261 (1 mg/kg s.c. and 1 mg/kg i.p.) in DMSO (45% vol. in PBS) or 45% DMSO alone starting 1 day before EAE induction and continuing throughout the experiment. All procedures performed on mice were approved by the relevant animal review committee. […]

Test [2] deals with blood brain barrier. In words: Fluorimetric analysis of labeled dextrans in brain after i.v. drug administration. In kind it is in vivo, mice. How it is done:
C57BL/6 mice from Jackson Laboratories were used as wild types. All mice used were aged 7-9 weeks and weighed between 20-25 g. All rats were aged 8 weeks and weighed 200-220 g. Mice and rats were bred and housed under specific pathogen-free conditions.
The adenosine receptor agonists NECA, CCPA and CGS 21860 were purchased from Tocris. Each was dissolved in DMSO then diluted in PBS to the desired concentration; in most cases final DMSO concentrations were <0.5% (vol/vol). For vehicle controls, DMSO was diluted in PBS to the same concentration. Dehydrated dextrans labeled with either FITC or Texas Red were purchased from Invitrogen and re-suspended in PBS to 10 mg ml^−1. All experiments involving dextran injection used 0.5 mg dextran in PBS. In experiments where drug and dextran were injected concomitantly, 0.5 mg of dextran was mixed with the drug to the desired concentration in a final volume of 200 μl. All injections were retro-orbital i.v. with a 27-gauge needle. In the SCH 58261 experiment, groups were administered vehicle or SCH 58261 for 4 d. Vehicle/drug and dextrans were injected on day 5 and tissues were collected 3 h after vehicle/drug administration. In Lexiscan experiments, Lexiscan was administered i.v. with 3 injections, 5 min apart and tissues were collected at 15 min unless otherwise indicated.
In dose-response experiments and experiments with the A1 AR and A2A AR knock-out mice, drugs and dextrans were injected concomitantly. After 3 h, the mice were anesthetized with ketamine/xylazine and subjected to a nose cone containing isoflurane. They were perfused with 25-50 ml ice-cold PBS through the left ventricle of the heart then decapitated. Their brains were removed, weighed and frozen for later analysis.
Ice-cold 50 mM Tris-Cl (pH 7.6) was added to frozen brains (100 μl per 100 mg brain) and were to thawed on ice. They were homogenized manually with ˜45 strokes of a dounce homogenizer in plastic 1.5 ml microfuge tubes then spun at 16.1 g in a microfuge for 30 min at room temperature (rt). The supernatants were transferred to new tubes and an equal volume absolute methanol was added. The samples were spun again at 16.1 g for 30 min at rt. Supernatant (200 μl) was transferred to a Corning costar 96 well black polystyrene assay plate (clear bottom). Additionally, a series of standards containing 0.001-10 μg ml^−1 dextran in 50% Tris-Cl/50% absolute methanol (vol/vol) was added to each plate. Absolute concentrations of dextrans were derived from these standard curves. Fluorimetric analysis was performed on a BioTek Synergy 4. FITC-dextran was detected at 488/519 (excitation/emission) and Texas Red-dextran was detected at 592/618.

Test [3] concerns CNS lymphocyte infiltration. Nature of the test: Immunohistochemistry of CD4+ infiltrating lymphocytes in brain and spinal cord after EAE induction. In kind it is in vivo. As to conditions: wild type mice, day 15 post-EAE induction; 2 mg/kg daily; vs DMSO treated.
Source text: as §1

The test system of test [4] is blood brain barrier. In words: FITC-Dextran extravasation through the brain endothelium (brain sections). It counts as in vivo, mice. As to conditions: wild type mice, FIG. 16. How it is done:
In order to examine the effects of caffeine, a general adenosine receptor antagonist, on blood brain barrier permeability, mice were fed caffeine for several days and then injected with FITC Dextran, commonly used to assess endothelial permeability.
More particularly, mice were fed 0.6 g/l caffeine (Sigma, St. Louis, Mo.) in water or regular water ad lib for five days. Mice were injected IP with FITC Dextran (10,000 MW, Molecular Probes, Eugene, Oreg.) and after 30 minutes mice were perfused with ice cold PBS via the left ventricle. Brains were removed and snap frozen in OCT (Tissue Tek, Torrance, Calif.) and stored at −80° C. until sectioning. Tissue sections (5 μm) were stained with hematoxylin for light microscopy and with DAPI for a fluorescent counterstain.

The test system of test [5] is Experimental Autoimmune Encephalomyelitis (EAE). Nature of the test: MOG-induced EAE induction and daily scoring. In kind it is in vivo, mice. As to conditions: wild type mice; 2 mg/kg (1 mg/kg i.p. and 1 mg/kg s.c.) 1 day prior to EAE induction and daily for 30 days; vs DMSO alone. From the text:
Cd73^−/− mice have been previously described (Thompson et al., “Crucial Role for Ecto-5′-Nucleotidase (CD73) in Vascular Leakage During Hypoxia,” J. Exp. Med. 200:1395-1405 (2004), which is hereby incorporated by reference in its entirety) and have been backcrossed to C57BL/6 for 14 generations. Cd73 mice have no overt susceptibility to infection and appear normal based on the size and cellular composition of their lymphoid organs and their T and B cell responses in in vivo and in vitro assays (Thompson et al., “Crucial Role for Ecto-5′-Nucleotidase (CD73) in Vascular Leakage During Hypoxia,” J. Exp. Med. 200:1395-1405 (2004), which is hereby incorporated by reference in its entirety). C57BL/6 and tcrα^−/− mice on the C57BL/6 background were purchased from The Jackson Laboratories. Mice were bred and housed under specific pathogen-free conditions at Cornell University or the University of Turku. For adenosine receptor blockade experiments, mice were given drinking water supplemented with 0.6 g/L of caffeine (Sigma) or 2 mg/kg SCH58261 (1 mg/kg s.c. and 1 mg/kg i.p.) in DMSO (45% vol. in PBS) or 45% DMSO alone starting 1 day before EAE induction and continuing throughout the experiment. All procedures performed on mice were approved by the relevant animal review committee.
EAE was induced by subjecting mice to the myelin oligodendrocyte glycoprotein (“MOG”) EAE-inducing regimen as described in Swanborg, “Experimental Autoimmune Encephalomyelitis in Rodents as a Model for Human Demyelinating Disease,” Clin. Immunol. Immunopathol. 77:4-13 (1995) and Bynoe et al., “Epicutaneous Immunization with Autoantigenic Peptides Induces T Suppressor Cells that Prevent Experimental Allergic Encephalomyelitis,” Immunity 19:317-328 (2003), which are hereby incorporated by reference in their entirety. Briefly, a 1:1 emulsion of MOG35-55 peptide (3 mg/ml in PBS) (Invitrogen) and complete Freund's adjuvant (CFA, Sigma) was injected subcutaneously (50 μl) into each flank. Pertussis toxin (PTX, 20 ng) (Biological Laboratories Inc.) was given intravenously (200 μl in PBS) at the time of immunization and again 2 days later. Mice were scored daily for EAE based on disease symptom severity; 0=no disease, 0.5-1=weak/limp tail, 2=limp tail and partial hind limb paralysis, 3=total hind limb paralysis, 4=both hind limb and fore limb paralysis, 5=death. Mice with a score of 4 were euthanized.

For test [6], the system named is blood brain barrier. Nature of the test: Fluorimetric analysis of labeled dextrans in brain after i.v. drug administration, rats. It counts as in vivo. The settings on record: i.v. administration, 10,000 Da dextrans. How it is done: C57BL/6 mice from Jackson Laboratories were used as wild types. All mice used were aged 7-9 weeks and weighed between 20-25 g. All rats were aged 8 weeks and weighed 200-220 g. Mice and rats were bred and housed under specific pathogen-free conditions. The adenosine receptor agonists NECA, CCPA and CGS 21860 were purchased from Tocris. Each was dissolved in DMSO then diluted in PBS to the desired concentration; in most cases final DMSO concentrations were <0.5% (vol/vol). For vehicle controls, DMSO was diluted in PBS to the same concentration. Dehydrated dextrans labeled with either FITC or Texas Red were purchased from Invitrogen and re-suspended in PBS to 10 mg ml^-1. All experiments involving dextran injection used 0.5 mg dextran in PBS. In experiments where drug and dextran were injected concomitantly, 0.5 mg of dextran was mixed with the drug to the desired concentration in a final volume of 200 μl. All injections were retro-orbital i.v. with a 27-gauge needle. In the SCH 58261 experiment, groups were administered vehicle or SCH 58261 for 4 d. Vehicle/drug and dextrans were injected on day 5 and tissues were collected 3 h after vehicle/drug administration. […] FITC-dextran was detected at 488/519 (excitation/emission) and Texas Red-dextran was detected at 592/618.

Another test relates to brain endothelial cells. In words: Actin stress fiber induction in brain endothelial cells. In kind it is cell-based. How it is done: To test this brain endothelial cells were treated with either CCPA (to agonize A1 adenosine receptors) or […] (to agonize the A2A adenosine receptor).

Take `Nc1nc2c(cnn2CCc2ccccc2)c2nc(-c3ccco3)nn12` [SCH58261, 2-(2-Furanyl)-7-(2-phenylethyl)-7H-pyrazolo[4,3-e][1,2,4]triazolo[1,5-c]pyrimidin-5-amine]: the “ICAM-1 expression on the choroid plexus following EAE induction” value in test [1] is listed as “prevented the up regulation of ICAM-1”. In addition, the “entry of 10,000 Da FITC-dextran into brain” value with blood brain barrier [2] (WT mice, intraperitoneal administration for 4 d, dextran on day 5) is given as “significantly decreased entry”. The “frequency of CD4+ lymphocytes in the brain and spinal cord” value in test [3] is recorded as “significantly lower frequency”. Moreover, in the test on blood brain barrier [4], the “FITC-Dextran extravasation across the blood brain barrier” value was “inhibit FITC-Dextran extravasation”. In addition, in test [5], the EAE development result is “dramatically protected against EAE development”.
On to `CNC(=O)c1cnn(-c2nc(N)c3ncn([C@@H]4O[C@H](CO)[C@@H](O)[C@H]4O)c3n2)c1` [Lexiscan], for which, in the test on blood brain barrier [6], the BBB permeability entry is recorded as “increased BBB permeability in rats”. In the test on brain endothelial cells, the “actin stress fibers compared to vehicle alone” value is recorded as “induction of actin stress fibers was observed”. Also, the “magnitude of increased BBB permeability compared with NECA administration” value in the test with blood brain barrier [2] (i.v. administration) was “much greater”. Besides, the “BBB permeability to 10,000 Da dextrans” value with blood brain barrier [2] (mice, i.v., 3 injections 5 min apart, tissues collected at 15 min) is given as “increase BBB permeability to 10,000 Da dextrans”. In addition, the “time after which FITC-dextran was detectable in the brain” value in the test on blood brain barrier [2] (mice, single i.v. injection) was found to be 5 min.
